Reference: publication PMC3906007, “Discovery of a Small Molecule Agonist of Phosphatidylinositol 3-Kinase p110α That Reactivates Latent HIV-1” (PLoS ONE, 2014)
Read-outs that look alike come from different tables or passages of the source.

Key:
[1] = tested on: latent HIV-1 in CD8+-depleted MNC; type: cell-based; conditions: for Copies HIV RNA/mL: 7 days
From the text: Healthy HIV-1 uninfected blood donors and HIV-1-infected donors on suppressive cART with plasma HIV-1 RNA less than 50 copies/mL for >2 year provided written informed consent and underwent a large volume phlebotomy (100–200 mLs). The protocol for blood donation was approved by the Institutional Review Board of the University of Pittsburgh (IRB #PRO10070203).
CD8+T-cells were depleted from whole blood using RosetteSep Human CD8 Depletion Cocktail (StemCell Technologies, Vancouver, BC) according to manufacturer's instructions. 2×10^6 CD4^+ MNC cells were seeded in triplicate per treatment in 48-well plates and allowed to rest overnight. […] Activation controls were treated with CD3/CD28 Dynabeads (Life Technologies, Grand Island, NY). After 7 days of incubation, supernatants from triplicate wells were pooled, centrifuged (500 g×5 min), and stored at −80°C. HIV-1 RNA levels in supernatants were determined using the COBAS® AmpliPrep/COBAS® TaqMan® HIV-1 Test, v2.0 (Roche, Indianapolis, IN).

PI3K p110α = tested on: T1, PI3K p110α; assay: PI3K activity assay (PIP3 production, Millipore kit) in combination with wortmannin, p110α; type: biochemical; conditions: recombinant purified enzyme; 100 nM wortmannin + 5 µM compound
T1 construct: purchased Millipore (Billerica, MA)
Description: The production of phosphatidylinositol (3,4,5)-triphosphate (PIP3) by the four class I PI3K isoenzymes (p110 α, β, γ, δ) was assessed using the PI3 Kinase Activity/Inhibitor Assay Kit (Millipore, Billerica, MA) according to the manufacturer's instructions. This assay works on the principle that the PH domain of the protein GRP-1 binds PIP3 with high affinity and specificity. This protein binds to the glutathione plate and captures either the PIP3 generated as part of the kinase reaction or the biotinylated-PIP3 tracer included in the kit. The captured biotinylated-PIP3 is detected using streptavidin-HRP conjugate and a colorimetric read out (OD 450).
The class I PI3Ks are heterodimeric enzymes formed by association of a p110 catalytic subunit with a p85 regulatory subunit. There are 4 variants of the p110 catalytic subunit designated p110α, β, δ or γ [22]. […] Briefly, in this assay the PIP3 generated as part of the kinase reaction or the biotinylated-PIP3 tracer included in the kit is captured on a glutathione plate via its interaction with the pleckstrin homology (PH) domain of the glutathione S-transferase (GST)-fusion protein general receptor for phosphoinositides-1 (GRP-1). The captured biotinylated-PIP3 is then detected using a streptavidin-HRP conjugate and a colorimetric read out.

Akt phosphorylation = assay: Western blot analysis of phosphorylated Akt in J89GFP cells; type: cell-based; conditions: 5 µM 57704
Description: To gain insight into the mechanism by which 57704 reactivates latent HIV-1, we evaluated its activity in combination with inhibitors of different signaling pathways or kinases in J89GFP cells (Fig. 4A, B). […] To determine whether 57704 directly activated the PI3K/Akt signaling pathway, we next assessed the levels of Akt phosphorylation in the J89GFP cells after exposure to 5 µM 57704.

HDAC8 = target: T2, HDAC8 (Homo sapiens, UniProt Q9BY41); assay: Fluorogenic HDAC activity assay, HDAC8; type: biochemical
T2 construct: purchased BPS Bioscience (San Diego, CA)
T2 sequence (Q9BY41 1-377): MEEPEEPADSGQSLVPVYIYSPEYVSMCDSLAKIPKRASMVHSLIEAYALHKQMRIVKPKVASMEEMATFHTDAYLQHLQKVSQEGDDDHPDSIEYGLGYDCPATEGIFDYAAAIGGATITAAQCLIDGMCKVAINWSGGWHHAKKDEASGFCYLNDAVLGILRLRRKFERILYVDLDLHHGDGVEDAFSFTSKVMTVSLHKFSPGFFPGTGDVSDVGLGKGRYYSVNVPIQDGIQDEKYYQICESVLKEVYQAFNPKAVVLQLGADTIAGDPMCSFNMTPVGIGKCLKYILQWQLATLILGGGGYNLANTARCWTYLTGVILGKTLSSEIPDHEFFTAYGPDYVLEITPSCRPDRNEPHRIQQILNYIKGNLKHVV
Description: The lysine deacetylase activity of HDACs 1, 2, 3, and 8 was assessed using the Fluorogenic HDAC Assay (BPS Bioscience, San Diego, CA) according to the manufacturer's instructions. […] All assays were carried out under steady-state conditions and the assay read-out was optimized for linearity both as a function of time and enzyme concentration. The formation of the fluorescent product was measured using a SpectraMax M2 Plate Reader (Molecular Devices, CA). The excitation and emission wavelengths were 360 nm and 450 nm, respectively.

## COc1cc2c(cc1OC)-c1c(OC)c(OC)cc3ccnc(c13)C2=O [Compound 57704, 1,2,9,10-tetramethoxy-7H-dibenzo[de,g]quinolin-7-one]
[1]; 5 µM 57704, mean of 4 donors
  Increase of HIV-1 RNA in culture supernatants compared to the control: ~4 fold
[1]; 4 donors on suppressive cART tested
  CD8+-depleted blood mononuclear cell preparations (donors) with increased HIV-1 expression: 3 of 4
[1]; donor 1, 1 µM 57704, control 96
  Copies HIV RNA/mL: 0 copies/mL
[1]; donor 1, 5 µM 57704, control 96
  Copies HIV RNA/mL: 389 copies/mL
[1]; donor 2, 1 µM 57704, control 0
  Copies HIV RNA/mL: 79 copies/mL
[1]; donor 2, 5 µM 57704, control 0
  Copies HIV RNA/mL: 35 copies/mL
[1]; donor 3, 1 µM 57704, control 0
  Copies HIV RNA/mL: 10 copies/mL
[1]; donor 3, 5 µM 57704, control 0
  Copies HIV RNA/mL: 0 copies/mL
[1]; donor 4, 1 µM 57704, control 20
  Copies HIV RNA/mL: 20 copies/mL
PI3K p110α
  Agonist activity: effect on inhibition of PI3K p110α by wortmannin: abrogated the ability of wortmannin to inhibit PI3K p110α
Akt phosphorylation
  Akt phosphorylation (Western blot): increased Akt phosphorylation
HDAC8
  IC50: > 50 µM
